The source of these data is US20260083865A1, “PROSTATE SPECIFIC MEMBRANE ANTIGEN (PSMA) LIGANDS AND USE THEREOF” (priority 2022, published 2026).

Test [1] addresses T1, PSMA-expressing C4-2 cells (Homo sapiens, UniProt Q04609).
T1 construct: PSMA-expressing C4-2 cells (ATCC, Cat. No. CRL-3314) were cultured in RPMI-1640; host or cells: C4-2 cells
The experiment in a line: FACS binding assay (competition with 50 nM PSM-0183). As to conditions: FACS binding, PSMA-expressing C4-2 cells; pIC50 category; read-out: pIC50 [C4-2] CAT (converted). The gist of the method: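 Competition format: fluorescent tracer PSM-0183 (50 nM) displaced from PSMA on C4-2 cells by a test compound titration over 1 h at 4 °C. Bound tracer was quantified as flow-cytometric AF488 median fluorescence after washing. Four-parameter logistic fits of MFI data gave IC50 and pIC50.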
(Flow cytometry measures light scatter and fluorescence of single cells or particles in a stream.)

Test [2] concerns the target T2, Fc-fusion protein of human PSMA (hPSMA-Fc) (Homo sapiens, UniProt Q04609).
T2 construct: purchased Acro Biosystems PSA-H5264
The experiment in a line: Surface plasmon resonance assay (Biacore T200, single cycle kinetic). Particulars: PSMA SPR assay, hPSMA-Fc, 25° C.; pKD category; read-out: pKD CAT (converted). It is filed as binding. The gist of the method: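 KD, expressed as pKD, came from 1:1 Langmuir fits of reference- and buffer-blank-subtracted SPR data. The runs were single-cycle kinetics at 25° C in HBST/0.1% DMSO over human PSMA-Fc, captured to ~1000 RU on a peptide-coated CM5 surface and regenerated with 10 mM glycine pH 1.5.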

Numbered stars: 1 amine (or outer) side, 2 acyl side, 3 side chain; on linkers, the order of the positions; unused ones are H or OH. Bridge positions count the residues as written; N and C are the ends. Square brackets hold non-standard residues; d marks the D form. Peptide text beside a SMILES is read from it. * marks the point of attachment. ξ: configuration not given here. TtdsdLys(DOTA)NH2 = NC(=O)[C@@H](CCCCNC(=O)CN1CCN(CC(=O)O)CCN(CC(=O)O)CCN(CC(=O)O)CC1)NC(=O)CCC(=O)NCCCOCCOCCOCCCN*; X3 = O=C(O)CN1CCN(CC(=O)O)CCN(CC(=O)NCCCOCCOCCOCCCN*)CCN(CC(=O)O)CC1; DOTA = O=C(O)CN1CCN(CC(=O)O)CCN(CC(=O)*)CCN(CC(=O)O)CC1; Trp(6-Cl) = N[C@@H](Cc1c[nH]c2cc(Cl)ccc12)C(=O)O; Phe(4-Cl) = N[C@@H](Cc1ccc(Cl)cc1)C(=O)O; X1 = O=C(CC1CCN([*:1])CC1)[*:2]; Cit = NC(=O)NCCC[C@H](N)C(=O)O; αMeD = C[C@](N)(CC(=O)O)C(=O)O; Suc = O=C(CCC(=O)[*:2])[*:1]; Tle = CC(C)(C)[C@H](N)C(=O)O; NHCH2CH2NMe2 = CN(C)CCN*; ξL = CC(C)CC(N)C(=O)O; Aib = CC(C)(N)C(=O)O

T1 sequence (Q04609 whole entry): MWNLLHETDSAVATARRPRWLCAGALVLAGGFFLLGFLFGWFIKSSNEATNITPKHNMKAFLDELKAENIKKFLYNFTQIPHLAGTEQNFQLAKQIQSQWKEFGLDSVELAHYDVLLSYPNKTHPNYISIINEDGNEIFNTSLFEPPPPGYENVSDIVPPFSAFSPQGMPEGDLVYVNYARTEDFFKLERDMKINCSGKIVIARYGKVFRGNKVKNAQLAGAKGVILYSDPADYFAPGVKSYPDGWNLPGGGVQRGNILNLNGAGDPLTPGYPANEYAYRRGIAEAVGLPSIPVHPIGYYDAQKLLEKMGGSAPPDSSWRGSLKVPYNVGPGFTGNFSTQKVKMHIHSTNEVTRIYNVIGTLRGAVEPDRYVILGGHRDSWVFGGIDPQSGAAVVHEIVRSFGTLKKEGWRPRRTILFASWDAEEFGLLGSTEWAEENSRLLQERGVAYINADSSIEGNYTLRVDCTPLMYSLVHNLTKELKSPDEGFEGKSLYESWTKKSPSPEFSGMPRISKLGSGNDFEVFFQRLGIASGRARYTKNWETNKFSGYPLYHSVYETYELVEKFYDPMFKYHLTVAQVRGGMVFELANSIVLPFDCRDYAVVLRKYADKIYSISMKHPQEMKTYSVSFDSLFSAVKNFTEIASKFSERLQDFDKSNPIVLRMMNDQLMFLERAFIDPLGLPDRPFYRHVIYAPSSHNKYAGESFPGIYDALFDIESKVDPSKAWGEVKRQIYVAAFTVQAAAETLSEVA
T2 sequence (Q04609 44-750 limits assumed): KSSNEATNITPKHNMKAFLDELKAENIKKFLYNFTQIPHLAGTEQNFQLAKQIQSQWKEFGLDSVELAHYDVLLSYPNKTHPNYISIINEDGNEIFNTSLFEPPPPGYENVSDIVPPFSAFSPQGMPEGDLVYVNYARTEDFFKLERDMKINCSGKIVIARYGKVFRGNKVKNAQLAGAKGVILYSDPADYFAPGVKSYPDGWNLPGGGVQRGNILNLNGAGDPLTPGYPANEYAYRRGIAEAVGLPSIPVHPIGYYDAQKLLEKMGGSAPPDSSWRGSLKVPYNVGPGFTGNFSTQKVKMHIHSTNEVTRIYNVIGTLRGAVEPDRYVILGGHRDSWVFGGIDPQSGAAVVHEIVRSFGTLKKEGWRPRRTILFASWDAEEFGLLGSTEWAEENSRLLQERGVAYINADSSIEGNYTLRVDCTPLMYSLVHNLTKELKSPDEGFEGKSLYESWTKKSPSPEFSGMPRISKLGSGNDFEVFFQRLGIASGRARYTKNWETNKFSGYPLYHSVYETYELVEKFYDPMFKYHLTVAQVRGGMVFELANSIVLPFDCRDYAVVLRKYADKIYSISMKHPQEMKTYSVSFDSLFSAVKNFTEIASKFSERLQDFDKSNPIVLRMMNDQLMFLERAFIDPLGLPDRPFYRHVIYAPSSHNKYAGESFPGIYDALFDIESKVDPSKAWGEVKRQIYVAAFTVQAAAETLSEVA

On to `CC(=O)N[C@@H](C)C(=O)N[C@@H](Cc1ccccc1)C(=O)N[C@H]1CSSC[C@@H](C(=O)N[C@@H](CC(C)C)C(=O)N[C@H](C(=O)N[C@@H](CC(=O)O)C(=O)NCCCOCCOCCOCCCNC(=O)CCC(=O)N[C@H](CCCCNC(=O)CN2CCN(CC(=O)O)CCN(CC(=O)O)CCN(CC(=O)O)CC2)C(N)=O)[C@@H](C)O)NC(=O)[C@H](CC(N)=O)NC(=O)[C@H](C)NC(=O)[C@H](CCCNC(=N)N)NC(=O)[C@H](CCCCN)NC1=O` [PSM-0299, Ac-Ala-Phe-[Cys-Lys-Arg-Ala-Asn-Cys]-Leu-Thr-Asp-Ttds-lys(DOTA)-NH2] (Ac-AFCKRANCLTD-{TtdsdLys(DOTA)NH2}; disulfide 3-8), for which the IC50 in test [1] was 1260 to 3160 nM. Further, the Kd in test [2] was 12.6 to 126 nM.
The matching figures for `CC(=O)N[C@H](C(=O)NC(C)(C)C(=O)N[C@@H](Cc1ccccc1)C(=O)N[C@H]1CSSC[C@@H](C(=O)N[C@H](C(=O)O)C(C)(C)C)NC(=O)[C@H](CC(N)=O)NC(=O)C(C)(C)NC(=O)[C@H](CCCNC(=N)N)NC(=O)[C@H](CCCCN)NC1=O)[C@@H](C)O` [PSM-0300, Ac-Thr-Aib-Phe-[Cys-Lys-Arg-Aib-Asn-Cys]-Tle-OH] (Ac-T[Aib]FCKR[Aib]NC[Tle]-OH; disulfide 4-9): less than 200 nM and less than 12.6 nM.
The matching figures for `C[C@@H](O)[C@H](NC(=O)[C@@H](NC(=O)[C@@H]1CSSC[C@H](NC(=O)[C@H](Cc2ccc(Cl)cc2)NC(=O)C(C)(C)NC(=O)[C@@H](NC(=O)CC2CCN(C(=O)CN3CCN(CC(=O)O)CCN(CC(=O)O)CCN(CC(=O)O)CC3)CC2)[C@@H](C)O)C(=O)N[C@@H](CCCCN)C(=O)N[C@@H](CCCNC(=N)N)C(=O)N[C@@](C)(CC(=O)O)C(=O)N[C@@H](CC(N)=O)C(=O)N1)C(C)(C)C)C(N)=O` [PSM-0302, DOTA-Cmp-Thr-Aib-Pcf-[Cys-Lys-Arg-Amd-Asn-Cys]-Tle-Thr-NH2] ({DOTA}-[X1]T[Aib][Phe(4-Cl)]CKR[αMeD]NC[Tle]T-NH2; disulfide 5-10): less than 200 nM and less than 12.6 nM.
Consider `CC(=O)N[C@H](C(=O)NC(C)(C)C(=O)N[C@@H](Cc1ccccc1)C(=O)N[C@H]1CSSC[C@@H](C(=O)N[C@H](C(=O)N[C@H](C(=O)NCCCOCCOCCOCCCNC(=O)CCC(=O)N[C@H](CCCCNC(=O)CN2CCN(CC(=O)O)CCN(CC(=O)O)CCN(CC(=O)O)CC2)C(N)=O)[C@@H](C)O)C(C)(C)C)NC(=O)[C@H](CC(N)=O)NC(=O)C(C)(C)NC(=O)[C@H](CCC(N)=O)NC(=O)[C@H](CCCCN)NC1=O)[C@@H](C)O` [PSM-0303, Ac-Thr-Aib-Phe-[Cys-Lys-Gln-Aib-Asn-Cys]-Tle-Thr-Ttds-lys(DOTA)-NH2] (Ac-T[Aib]FCKQ[Aib]NC[Tle]T-{TtdsdLys(DOTA)NH2}; disulfide 4-9), for which the IC50 in test [1] was 200 to 1260 nM. For the same molecule, the Kd in test [2] is 12.6 to 126 nM.
With `C[C@@H](O)[C@H](NC(=O)[C@@H](NC(=O)[C@@H]1CSSC[C@H](NC(=O)[C@H](Cc2c[nH]c3cc(Cl)ccc23)NC(=O)C(C)(C)NC(=O)[C@@H](NC(=O)CC2CCN(C(=O)CN3CCN(CC(=O)O)CCN(CC(=O)O)CCN(CC(=O)O)CC3)CC2)[C@@H](C)O)C(=O)N[C@@H](CCCCN)C(=O)N[C@@H](CCCNC(N)=O)C(=O)NC(C)(C)C(=O)N[C@@H](CC(N)=O)C(=O)N1)C(C)(C)C)C(N)=O` [PSM-0304, DOTA-Cmp-Thr-Aib-6Clw-[Cys-Lys-Cit-Aib-Asn-Cys]-Tle-Thr-NH2] ({DOTA}-[X1]T[Aib][Trp(6-Cl)]CK[Cit][Aib]NC[Tle]T-NH2; disulfide 5-10), in test [1], the IC50 is 200 to 1260 nM. The Kd in test [2] was less than 12.6 nM.
As for `CC(C)CC(NC(=O)[C@@H]1CSSC[C@H](NC(=O)[C@H](Cc2ccccc2)NC(=O)[C@H](C)NC(=O)[C@@H](NC(=O)CCC(=O)NCCCOCCOCCOCCCNC(=O)CN2CCN(CC(=O)O)CCN(CC(=O)O)CCN(CC(=O)O)CC2)[C@@H](C)O)C(=O)N[C@@H](CCCCN)C(=O)N[C@@H](CCCNC(=N)N)C(=O)N[C@@H](C)C(=O)N[C@@H](CC(N)=O)C(=O)N1)C(=O)N[C@H](C(N)=O)[C@@H](C)O` (stereo partly drawn) [PSM-0305, DOTA-Ttds-Thr-Ala-Phe-[Cys-Lys-Arg-Ala-Asn-Cys]-Lou-Thr-NH2] ({X3-Suc}-TAFCKRANC[ξL]T-NH2; disulfide 4-9), in test [1], the IC50 was 200 to 1260 nM. Moreover, the Kd in test [2] is 126 to 501 nM.
The matching figures for `C[C@@H](O)[C@H](NC(=O)CC1CCN(C(=O)CN2CCN(CC(=O)O)CCN(CC(=O)O)CCN(CC(=O)O)CC2)CC1)C(=O)NC(C)(C)C(=O)N[C@@H](Cc1ccc(Cl)cc1)C(=O)N[C@H]1CSSC[C@@H](C(=O)N[C@H](C(=O)NCCN(C)C)C(C)(C)C)NC(=O)[C@H](CC(N)=O)NC(=O)C(C)(C)NC(=O)[C@H](CCCNC(=N)N)NC(=O)[C@H](CCCCN)NC1=O` [PSM-0306, DOTA-Cmp-Thr-Aib-Pcf-[Cys-Lys-Arg-Aib-Asn-Cys]-Tle-en (Me) 2] ({DOTA}-[X1]T[Aib][Phe(4-Cl)]CKR[Aib]NC[Tle]-NHCH2CH2NMe2; disulfide 5-10): less than 200 nM and 12.6 to 126 nM.
